Data published in PubChem BioAssay AID248 (DTP/NCI, 2004).
“And” between values parts separate entries of the source, which are not always exact repeats. Equal values may be shown once. Inconclusive results and toxic doses are left out. Rule as the data show it: active = T/C of 150% or more; inactive = T/C below 125%.

Tested on: L1210 leukemia ip in BDF1 mice, survival T/C
Experiment: NCI In Vivo Anticancer Drug Screen. Data for tumor model L1210 Leukemia (intraperitoneal) in B6D2F1 (BDF1) mice
Settings: endpoint: mean survival time, higher = longer survival
Procedure, shortened: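 Survival endpoint. Drug-treated group vs vehicle group, expressed as T divided by C. Tumor passaged by transplantation.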

[1] = dose: 100.0 mg/kg/injection, schedule: Q04DX003 (ip), vehicle: Klucel (hydroxypropylcellulose) (HPC)
[2] = dose: 200.0 mg/kg/injection, schedule: Q04DX003 (ip), vehicle: Klucel (hydroxypropylcellulose) (HPC)
[3] = dose: 400.0 mg/kg/injection, schedule: Q04DX003 (ip), vehicle: Klucel (hydroxypropylcellulose) (HPC)
[4] = dose: 100.0 mg/kg/injection, schedule: Q01DX001 (ip), vehicle: saline
[5] = dose: 200.0 mg/kg/injection, schedule: Q01DX001 (ip), vehicle: saline
[6] = dose: 400.0 mg/kg/injection, schedule: Q01DX001 (ip), vehicle: saline
[7] = dose: 100.0 mg/kg/injection, schedule: Q01DX009 (ip), vehicle: Klucel (hydroxypropylcellulose) (HPC)
[8] = dose: 100.0 mg/kg/injection, schedule: Q04DX003 (ip), vehicle: saline with Tween-80
[9] = dose: 200.0 mg/kg/injection, schedule: Q01DX009 (ip), vehicle: Klucel (hydroxypropylcellulose) (HPC)
[10] = dose: 400.0 mg/kg/injection, schedule: Q01DX009 (ip), vehicle: Klucel (hydroxypropylcellulose) (HPC)
[11] = dose: 100.0 mg/kg/injection, schedule: Q01DX001 (ip), vehicle: carboxymethylcellulose (CMC)
[12] = dose: 200.0 mg/kg/injection, schedule: Q01DX001 (ip), vehicle: carboxymethylcellulose (CMC)
[13] = dose: 400.0 mg/kg/injection, schedule: Q01DX001 (ip), vehicle: carboxymethylcellulose (CMC)
[14] = dose: 100.0 mg/kg/injection, schedule: Q04DX003 (ip), vehicle: saline
[15] = dose: 200.0 mg/kg/injection, schedule: Q04DX003 (ip), vehicle: saline with Tween-80

Measured: T/C

O=C(O)COc1ccc(C2(c3ccc(OCC(=O)O)cc3)CC3CC2C2CCCC32)cc1 (stereo not given) (tested in a mixture with another compound)
inactive: dose: 100.0 mg/kg/injection, schedule: Q04DX002 (ip), vehicle: saline with Tween-80 93 % of control | dose: 200.0 mg/kg/injection, schedule: Q04DX002 (ip), vehicle: saline with Tween-80 93 % of control | dose: 400.0 mg/kg/injection, schedule: Q04DX002 (ip), vehicle: saline with Tween-80 106 % of control

NC1(C(=O)c2ccccc2)CC2CCC1C2 (stereo not given)
inactive: [1] 101 % of control | [2] 98 % of control | [3] 103 % of control

O=C(c1cccnc1)C1Cc2ccccc2C1=O (stereo not given)
inactive: dose: 100.0 mg/kg/injection, schedule: Q04DX003 (ip), vehicle: saline sonified 100 % of control | dose: 200.0 mg/kg/injection, schedule: Q04DX003 (ip), vehicle: saline sonified 96 % of control | dose: 400.0 mg/kg/injection, schedule: Q04DX003 (ip), vehicle: saline sonified 91 % of control

CC(=O)N1CCCC2CCc3c([nH]c4ccccc34)C21 (stereo not given)
inactive: dose: 75.0 mg/kg/injection, schedule: Q01DX001 (ip), vehicle: other 110 % of control | dose: 150.0 mg/kg/injection, schedule: Q01DX001 (ip), vehicle: other 119 % of control | dose: 300.0 mg/kg/injection, schedule: Q01DX001 (ip), vehicle: other 110 % of control

CSCCC(NC(=O)C(C)N)C(=O)O (stereo not given)
inactive: [4] 90 % of control | [5] 92 % of control | [6] 101 % of control

N=C1SCc2ccccc21
inactive: [7] 104 % of control

CCCCCCCc1nc(N)c(C(N)=O)[nH]1
inactive: dose: 25.0 mg/kg/injection, schedule: Q04DX003 (ip), vehicle: saline with Tween-80 96 % of control | dose: 50.0 mg/kg/injection, schedule: Q04DX003 (ip), vehicle: saline with Tween-80 102 % of control | dose: 100.0 mg/kg/injection, schedule: Q01DX001 (ip), vehicle: saline with Tween-80 98 % of control | [8] 101 % of control

CCC/C(=C\C(=O)O)CC
inactive: [7] 94 % of control | [1] 93 % of control | [9] 96 % of control | [2] 90 % of control | [10] 96 % of control | [3] 98 % of control

CN(C)C(=O)SSC(=S)N(C)C
inactive: dose: 4.0 mg/kg/injection, schedule: Q01DX015 (ip), vehicle: carboxymethylcellulose (CMC) 93 % of control | dose: 8.0 mg/kg/injection, schedule: Q01DX015 (ip), vehicle: carboxymethylcellulose (CMC) 92 % of control | dose: 16.0 mg/kg/injection, schedule: Q01DX015 (ip), vehicle: carboxymethylcellulose (CMC) 106 % of control | dose: 32.0 mg/kg/injection, schedule: Q01DX015 (ip), vehicle: carboxymethylcellulose (CMC) 97 % of control and 98 % of control | dose: 64.0 mg/kg/injection, schedule: Q01DX015 (ip), vehicle: carboxymethylcellulose (CMC) 98 % of control | dose: 128.0 mg/kg/injection, schedule: Q01DX015 (ip), vehicle: carboxymethylcellulose (CMC) 96 % of control

CCOC(=O)c1ccc2c(c1)Cc1c-2cc(Br)c(N)c1Br
inactive: [11] 100 % of control | [12] 102 % of control | [13] 91 % of control

BrC1CCC2C(CCC(Br)C23OCCO3)C12OCCO2 (stereo not given)
inactive: dose: 100.0 mg/kg/injection, schedule: Q01DX009 (ip), vehicle: saline 91 % of control | [14] 89 % of control | dose: 200.0 mg/kg/injection, schedule: Q01DX009 (ip), vehicle: saline 98 % of control | dose: 400.0 mg/kg/injection, schedule: Q01DX009 (ip), vehicle: saline 91 % of control | dose: 400.0 mg/kg/injection, schedule: Q04DX003 (ip), vehicle: saline 108 % of control

O=C(c1cccc(C(=O)N(c2ccccc2)C2CCCCC2)c1)N(c1ccccc1)C1CCCCC1
inactive: [7] 100 % of control | [9] 94 % of control | [10] 98 % of control

c1ccc2c(c1)OCOc1ccccc1OCO2
inactive: [11] 94 % of control | [12] 92 % of control | [13] 92 % of control

CCOC(=O)CNC(=O)Cn1ccc(=O)[nH]c1=O
inactive: dose: 50.0 mg/kg/injection, schedule: Q01DX001 (ip), vehicle: saline 96 % of control | [4] 98 % of control | [5] 98 % of control

CCCCCCCC(=O)c1ccc(O)cc1
inactive: [8] 109 % of control | [15] 100 % of control | dose: 400.0 mg/kg/injection, schedule: Q04DX003 (ip), vehicle: saline with Tween-80 103 % of control

CCCCOCCOCCOC(C)Oc1ccc(C(=O)OC)cc1 (stereo not given)
inactive: dose: 100.0 mg/kg/injection, schedule: Q04DX002 (ip), vehicle: saline 92 % of control | dose: 200.0 mg/kg/injection, schedule: Q04DX002 (ip), vehicle: saline 99 % of control | dose: 400.0 mg/kg/injection, schedule: Q04DX002 (ip), vehicle: saline 101 % of control

O=C(O)CCCCOc1ccccc1
inactive: dose: 75.0 mg/kg/injection, schedule: Q04DX003 (ip), vehicle: saline 97 % of control | dose: 150.0 mg/kg/injection, schedule: Q04DX003 (ip), vehicle: saline 103 % of control

NOCc1ccc(CON)cc1
inactive: [14] 95 % of control | dose: 200.0 mg/kg/injection, schedule: Q04DX003 (ip), vehicle: saline 97 % of control

Nc1nc2ncn(C3OC(CO)C(O)C3O)c2c(=O)[nH]1 (stereo not given)
inactive: [4] 105 % of control | [5] 104 % of control | [6] 104 % of control

CCN(C(C)=O)c1ccc(S(=O)(=O)Cl)cc1
inactive: [8] 97 % of control | [15] 88 % of control

CN1CCN(CCSC(=O)C(O)(c2ccccc2)C2CCCC2)CC1 (stereo not given)
inactive: dose: 150.0 mg/kg/injection, schedule: Q01DX001 (ip), vehicle: saline 102 % of control
